Results taken from patent US8969516B2, “Method of hydrolysis of peptide bond” (priority 2006, dated 2015).

Experiment: MALDI-TOF screening of Ni^2+ dependent hydrolysis in a combinatorial peptide library
Assay type: physicochemical
Details: Ni^2+ 2 mM, pH 8.2, 10 mM Tris, score=24/tm
Procedure, shortened: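 MALDI-TOF spectra taken at 2, 4, 6 and 8 h tracked the appearance of Ser/Thr-X-His-Z-Lys-Phe-Leu-NH2 cleavage products and the fall in substrate signals. Reactions: 1 mM peptide mixture, 2 mM Ni^2+, 10 mM Tris pH 8.2, at 37 or 45 °C; X/Z substitutions ranked by summed scores.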

[1] = CH3CO-Gly-Ala-Ser-X-His-Z-Lys-Phe-Leu-NH2 library, 37° C.
[2] = CH3CO-Gly-Ala-Ser-X-His-Z-Lys-Phe-Leu-NH2 library, 45° C.
[3] = CH3CO-Gly-Ala-Thr-X-His-Z-Lys-Phe-Leu-NH2 library, 37° C.
[4] = CH3CO-Gly-Ala-Thr-X-His-Z-Lys-Phe-Leu-NH2 library, 45° C.

In the case of Ac-GASTHQKFL-NH2 [STHQ], the “hydrolysis score from MALDI-TOF screening” value (“hydrolysis score” for short) [1] is reported as 0 (a score of 0 if no trace of the product of hydrolysis was seen after 8 hours of incubation) and the “hydrolysis score” value [2] is reported as 0 (a score of 0 if no trace of the product of hydrolysis was seen after 8 hours of incubation).
For Ac-GATNHKKFL-NH2 [TNHK], the “hydrolysis score” value [3] was 0 (a score of 0 if no trace of the product of hydrolysis was seen after 8 hours of incubation) and the “hydrolysis score” value [4] was 0 (a score of 0 if no trace of the product of hydrolysis was seen after 8 hours of incubation).
With Ac-GATPHFKFL-NH2 [TPHF] the “hydrolysis score” value [4] was 0 (a score of 0 if no trace of the product of hydrolysis was seen after 8 hours of incubation).
With Ac-GATYHGKFL-NH2 [TYHG] the “hydrolysis score” value [3] was 0 (a score of 0 if no trace of the product of hydrolysis was seen after 8 hours of incubation) and the “hydrolysis score” value [4] was 0 (a score of 0 if no trace of the product of hydrolysis was seen after 8 hours of incubation).
With Ac-GASIHKKFL-NH2 [SIHK] the “hydrolysis score” value [1] was 3 (a score of 3 for detection at 8 hours) and the “hydrolysis score” value [2] was 4 (a score of 4 for detection at 6 hours).
In the case of Ac-GASFHVKFL-NH2 [SFHV], the “hydrolysis score” value [1] is reported as 3 (a score of 3 for detection at 8 hours) and the “hydrolysis score” value [2] is reported as 6 (a score of 6 for detection at 4 hours).
In the case of Ac-GATLHMKFL-NH2 [TLHM], the “hydrolysis score” value [3] is reported as 0 (a score of 0 if no trace of the product of hydrolysis was seen after 8 hours of incubation) and the “hydrolysis score” value [4] is reported as 0 (a score of 0 if no trace of the product of hydrolysis was seen after 8 hours of incubation).
In the case of Ac-GATNHEKFL-NH2 [TNHE], the “hydrolysis score” value [3] is reported as 0 (a score of 0 if no trace of the product of hydrolysis was seen after 8 hours of incubation) and the “hydrolysis score” value [4] is reported as 0 (a score of 0 if no trace of the product of hydrolysis was seen after 8 hours of incubation).
In the case of Ac-GASMHEKFL-NH2 [SMHE], the “hydrolysis score” value [1] is reported as 0 (a score of 0 if no trace of the product of hydrolysis was seen after 8 hours of incubation) and the “hydrolysis score” value [2] is reported as 0 (a score of 0 if no trace of the product of hydrolysis was seen after 8 hours of incubation).
With Ac-GATMHGKFL-NH2 [TMHG] the “hydrolysis score” value [3] was 0 (a score of 0 if no trace of the product of hydrolysis was seen after 8 hours of incubation) and the “hydrolysis score” value [4] was 0 (a score of 0 if no trace of the product of hydrolysis was seen after 8 hours of incubation).
In the case of Ac-GASIHFKFL-NH2 [SIHF], the “hydrolysis score” value [1] is reported as 0 (a score of 0 if no trace of the product of hydrolysis was seen after 8 hours of incubation) and the “hydrolysis score” value [2] is reported as 0 (a score of 0 if no trace of the product of hydrolysis was seen after 8 hours of incubation).
For Ac-GATVHWKFL-NH2 [TVHW], the “hydrolysis score” value [3] was 0 (a score of 0 if no trace of the product of hydrolysis was seen after 8 hours of incubation) and the “hydrolysis score” value [4] was 3 (a score of 3 for detection at 8 hours).
In the case of Ac-GASQHEKFL-NH2 [SQHE], the “hydrolysis score” value [1] is reported as 0 (a score of 0 if no trace of the product of hydrolysis was seen after 8 hours of incubation) and the “hydrolysis score” value [2] is reported as 0 (a score of 0 if no trace of the product of hydrolysis was seen after 8 hours of incubation).
With Ac-GATWHKKFL-NH2 [TWHK] the “hydrolysis score” value [3] was 4 (a score of 4 for detection at 6 hours) and the “hydrolysis score” value [4] was 4 (a score of 4 for detection at 6 hours).
For Ac-GATSHSKFL-NH2 [TSHS], the “hydrolysis score” value [3] was 0 (a score of 0 if no trace of the product of hydrolysis was seen after 8 hours of incubation) and the “hydrolysis score” value [4] was 0 (a score of 0 if no trace of the product of hydrolysis was seen after 8 hours of incubation).
In the case of Ac-GATFHFKFL-NH2 [TFHF], the “hydrolysis score” value [3] is reported as 0 (a score of 0 if no trace of the product of hydrolysis was seen after 8 hours of incubation) and the “hydrolysis score” value [4] is reported as 0 (a score of 0 if no trace of the product of hydrolysis was seen after 8 hours of incubation).
In the case of Ac-GASGHKKFL-NH2 [SGHK], the “hydrolysis score” value [1] is reported as 0 (a score of 0 if no trace of the product of hydrolysis was seen after 8 hours of incubation) and the “hydrolysis score” value [2] is reported as 3 (a score of 3 for detection at 8 hours).
